Assay results from article PMC9016773 (Journal of chemical information and modeling, 2022).
“Also recorded” adds a separate entry of the source.

How the values were obtained:
[1] = tested on: HSPG-mediated endocytosis of α-Synuclein fibrils in HEK293T cells; experiment: α-Synuclein fibrils uptake assay; type: cell-based; conditions: among the top 10 inhibitors
[2] = tested on: SARS-CoV-2; conditions: among drugs of the repurposing screen; cited from earlier work
[3] = tested on: actin filaments underlying the plasma membrane (cortex actin); conditions: inhibits HSPG-mediated endocytosis; cited from earlier work
[4] = tested on: cortex actin filaments in U2OS cells; type: cell-based
[5] = tested on: SARS-CoV-2 pseudotyped particles; type: cell-based; conditions: read-out: IC50, anti-pseudotyped particle activity

Row | SMILES | Inhibition of the entry of pHrodo-labeled α-Synuclein fibrils (ranking in words) [1] | Disruption of actin filaments underlying the plasma membrane (cortex actin) [3] | also measured
1 | O=C(Oc1cccc2cccnc12)c1ccccc1 [NCGC00159478] | highest inhibition |  | 
2 | O=C1c2c(O)ccc(O)c2C(=O)c2c(NCCNCCO)ccc(NCCNCCO)c21 [mitoxantrone] |  |  | Antiviral activity in vitro (in words) [2]: most potent antiviral activity in vitro
3 | CCN(CC)CCNC(=O)c1c(C)[nH]c(/C=C2\C(=O)Nc3ccc(F)cc32)c1C [Sunitinib] |  | effectively disrupt the actin filaments | 
4 | CN(C)CCNC(=O)c1nc(-c2ccc(N3CCN(C)CC3)cc2)cc2c1ccn2C [NCGC00411718] | highest inhibition |  | 
5 | CC(C)S(=O)(=O)c1oc(-c2ccc(F)cc2)nc1S(=O)(=O)c1ccccc1 [NCGC00115755-02] |  |  | Effect on actin filaments (phalloidin-Alexa488 staining) [4]: dose-dependent disruption of cortex actin filaments; also recorded: causes the disassembly of actin stress fiber and generates large actin aggregates; IC50 [5]: 5 µM
6 | O=C1/C(=C/c2ccccc2)C[C@@]2(O)[C@H]3Cc4ccc(O)c5c4[C@@]2(CCN3CC2CC2)[C@H]1O5 [BNTX] |  | effectively disrupt the actin filaments | 
